The subject of assay [1] is C57/BL6 WT mice subjected to TAC pressure overload. The experiment in a line: Body weight and heart weight in mice subjected to transverse aortic constriction (TAC). The class given is in vivo, mouse. Conditions: TAC 3 weeks, oral co-treatment 1 mg/g food, mean ± sem. From the text:
Male NOS3 null mice (NOS3^−/−) and C57/BL6 WT controls (8-11 weeks, Jackson Labs, Bar Harbor, Me., USA) were used. Pressure overload was produced by transverse aorta constriction (TAC). Briefly, The aortic arch was isolated by entering the extrapleural space between the second and third rib, and afterwards the transverse aorta was isolated between the right and left carotid arteries. A 7-0 prolene suture ligature was tied around the transverse aorta against a 27-gauge needle to produce a 65-70% constriction after the removal of the needle. After closing the chest, animals were extubated, and a subcutaneous injection of morphine sulphate 0.2 mg, was administered before they returned to their cages. Animal's ventilatory and circulatory status was checked every 30 minutes during the first 2 hours. Sham-operated mice underwent the same operation except for aortic constriction. […] Animals were randomized to receive placebo or BH4 (120 mg/kg/d) for the next 5 weeks. At the end of the study, i.e. at 9 weeks, animal were sacrificed to receive tissue or underwent in vivo PV-loop analysis. […] Control mice were subject to sham operations, and animals were studied 3-9 weeks following surgery. […]

The target of the next assay is T1, NOS3 (Mus musculus, UniProt P70313).
T1 construct: from tissue; host or cells: mouse heart (myocardium) after sham or TAC surgery
T1 sequence (P70313 2-1202 limits assumed): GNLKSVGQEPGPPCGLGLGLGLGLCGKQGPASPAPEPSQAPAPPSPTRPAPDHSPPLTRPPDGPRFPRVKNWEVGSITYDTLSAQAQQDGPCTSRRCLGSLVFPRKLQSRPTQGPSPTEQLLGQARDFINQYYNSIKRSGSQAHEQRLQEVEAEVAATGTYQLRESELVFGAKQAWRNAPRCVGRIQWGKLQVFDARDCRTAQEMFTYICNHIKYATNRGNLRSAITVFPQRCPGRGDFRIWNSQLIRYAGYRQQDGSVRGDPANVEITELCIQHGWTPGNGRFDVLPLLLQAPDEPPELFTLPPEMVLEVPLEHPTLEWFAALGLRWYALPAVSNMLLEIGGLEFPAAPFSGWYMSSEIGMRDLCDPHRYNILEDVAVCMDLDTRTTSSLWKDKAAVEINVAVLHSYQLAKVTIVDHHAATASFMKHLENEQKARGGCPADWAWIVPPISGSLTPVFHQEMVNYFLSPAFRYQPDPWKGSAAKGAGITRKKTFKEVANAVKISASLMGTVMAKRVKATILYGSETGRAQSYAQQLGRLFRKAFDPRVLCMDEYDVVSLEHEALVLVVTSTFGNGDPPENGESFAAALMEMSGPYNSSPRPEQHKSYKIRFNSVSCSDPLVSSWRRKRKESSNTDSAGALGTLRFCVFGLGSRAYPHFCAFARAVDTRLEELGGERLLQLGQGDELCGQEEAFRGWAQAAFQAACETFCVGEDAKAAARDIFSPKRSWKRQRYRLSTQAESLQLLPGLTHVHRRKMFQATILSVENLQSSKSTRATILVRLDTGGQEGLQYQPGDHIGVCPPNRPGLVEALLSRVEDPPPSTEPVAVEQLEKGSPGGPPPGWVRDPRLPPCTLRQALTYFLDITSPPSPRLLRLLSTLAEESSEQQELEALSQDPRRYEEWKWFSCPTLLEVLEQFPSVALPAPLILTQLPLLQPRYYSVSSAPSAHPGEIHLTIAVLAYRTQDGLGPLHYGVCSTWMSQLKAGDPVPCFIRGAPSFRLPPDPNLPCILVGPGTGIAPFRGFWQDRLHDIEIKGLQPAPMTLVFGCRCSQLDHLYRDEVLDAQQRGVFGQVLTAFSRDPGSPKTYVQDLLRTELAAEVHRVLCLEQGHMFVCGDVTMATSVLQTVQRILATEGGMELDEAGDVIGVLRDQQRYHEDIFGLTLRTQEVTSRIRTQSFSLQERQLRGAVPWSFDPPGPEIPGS
The experiment in a line: NOS3 dimer/monomer by low-temperature SDS-PAGE in TAC hearts. The class given is in vivo. Conditions: WT mice, TAC 3 weeks, oral co-treatment. The method, then:
SDS-resistant NOS3 dimers and monomers were assayed using low-temperature SDS PAGE under reducing or non-reducing conditions, as described previously^7. NOS3 was immunoprecipitated as described^16 and the resulting samples added to fivefold Laemmli buffer (0.32 mol/l Tris-HCl, pH 6.8, 0.5 mol/l glycine, 10% SDS, 50% glycerol, and 0.03% bromophenol blue) in non-reducing gel (no 2-mercaptoethanol) to identify dimer dissociation due to reduced disulfide bridges. To provide fully denatured control lanes, samples were boiled for 15 minutes prior to loading. Electrophoresis was performed using Tris glycine 6% gels (Invitrogen Corp.), and gels and buffers maintained in an ice bath at 4° C. and stained (SimplyBlue, Invitrogen Corp.). Calcium dependent and independent NOS activity was determined from myocardial homogenates by [3H] L-arginine to [3H] citrulline conversion (Sigma-Aldrich) as described^16. An alternative approach involved more direct Western blot analysis without requiring initial NOS IP. Cold SDS-Page Western blot analysis was performed using a self-made […] SDS-Tris gel. After overnight running on ice, the gel was transferred for 3 h to nitrocellulose membrane. […] Bound antibodies were detected with horseradish peroxidase-conjugated anti-mouse IgG and visualize with an enhanced chemiluminescence detection system.

Here are results for 1 molecule from US20100004248A1, “Use of a Nitric Oxide Synthase Modulator for the Treatment of Cardiac Indications” (priority 2005, published 2010).

With `Nc1nc2c(c(=O)[nH]1)NC(C(O)C(O)CO)CN2` (centres unmarked) [H4N, tetrahydroneopterin], in assay [1], the “Heart Weight (HW)” value is 231.3 ± 10.7 mg. On NOS3, the NOS3 dimerization entry is “unaltered”.
